Calls of active or inactive are those of the source. No cut-off for these calls is given here.
Experiments:
[1] = system: ACHN (Homo sapiens); assay: Antiproliferative activity against human ACHN cells at 1 uM relative to control
[2] = system: Calu-1; assay: Antiproliferative activity against human Calu1 cells after 48 hrs by propidium iodide staining based fluorometry; type: functional, cell-based; settings: Calu-1, 48 h
[3] = system: NCI-H460; assay: Antiproliferative activity against human H460 cells after 48 hrs by propidium iodide staining based fluorometry; type: functional, cell-based; settings: NCI-H460, 48 h
[4] = system: PBMC; assay: Antiinflammatory activity in human PBMC assessed as inhibition of LPS-induced TNF-alpha production incubated for 30 mins followed by LPS addition measured after 4.5 hrs by ELISA; type: functional, cell-based
[5] = system: THP-1; assay: Antiinflammatory activity in PMA-differentiated human THP1 cells assessed as inhibition of LPS-induced TNF-alpha production at 1 uM after 24 hrs by ELISA relative to control; type: functional; settings: THP-1, 24 h
[6] = system: MIA PaCa-2 (Homo sapiens); assay: Antiproliferative activity against human MIA PaCa-2 cells at 1 uM relative to control
[7] = system: MIA PaCa-2; assay: Antiproliferative activity against human MIAPaCa2 cells at 10 uM relative to control; type: functional
[8] = system: THP-1; assay: Antiinflammatory activity in PMA-differentiated human THP1 cells assessed as inhibition of LPS-induced TNF-alpha production at 10 uM after 24 hrs by ELISA relative to control; type: functional; settings: THP-1, 24 h
[9] = system: THP-1 (Homo sapiens); assay: Antiinflammatory activity in human THP1 cells assessed as inhibition of TNF-alpha production at 10 uM relative to control; design: scale not given: the % may be the effect or the level left
[10] = system: THP-1; assay: Antiinflammatory activity in PMA-differentiated human THP1 cells assessed as inhibition of LPS-induced IL-6 production at 10 uM after 24 hrs by ELISA relative to control; type: functional; settings: THP-1, 24 h
[11] = system: THP-1 (Homo sapiens); assay: Antiinflammatory activity in human THP1 cells assessed as inhibition of IL-6 production at 10 uM relative to control; design: scale not given: the % may be the effect or the level left
[12] = system: MDA-MB-231 (Homo sapiens); assay: Antiproliferative activity against human MDA-MB-231 cells at 1 uM relative to control; settings: mda-mb-231, 1 µM
[13] = system: THP-1; assay: Antiinflammatory activity in PMA-differentiated human THP1 cells assessed as inhibition of LPS-induced IL-6 production after 24 hrs by ELISA; type: functional, cell-based; settings: THP-1, 24 h
[14] = system: PANC-1; assay: Antiproliferative activity against human PANC1 cells after 48 hrs by propidium iodide staining based fluorometry; type: functional, cell-based; settings: PANC-1, 48 h
[15] = system: HCT-116; assay: Antiproliferative activity against human HCT116 cells after 48 hrs by propidium iodide staining based fluorometry; type: functional, cell-based; settings: HCT-116, 48 h
[16] = system: THP-1; assay: Antiinflammatory activity in PMA-differentiated human THP1 cells assessed as inhibition of LPS-induced TNF-alpha production after 24 hrs by ELISA; type: functional, cell-based; settings: THP-1, 24 h
[17] = system: ACHN; assay: Antiproliferative activity against human ACHN cells after 48 hrs by propidium iodide staining based fluorometry; type: functional, cell-based
[18] = system: THP-1; assay: Cytotoxicity against PMA-differentiated human THP1 cells assessed as reduction in cell viability after 4.5 hrs by MTS assay; type: cell-based; settings: THP-1, 4.5 h
[19] = system: THP-1; assay: Antiinflammatory activity in PMA-differentiated human THP1 cells assessed as inhibition of LPS-induced IL-6 production at 1 uM after 24 hrs by ELISA relative to control; type: functional; settings: THP-1, 24 h
[20] = system: ACHN (Homo sapiens); assay: Antiproliferative activity against human ACHN cells at 10 uM relative to control
[21] = system: A-549 (Homo sapiens); assay: Antiproliferative activity against human A-549 cells at 10 uM relative to control
[22] = system: MDA-MB-231 (Homo sapiens); assay: Antiproliferative activity against human MDA-MB-231 cells at 10 uM relative to control

Compound	Activity [1] [%]	inhibition at 1 µM [5] [%]	Activity [6] [%]	Activity [7] [%]	inhibition at 10 µM [8] [%]	Activity [9] [%]	inhibition at 10 µM [10] [%]	Activity [11] [%]	Activity [12] [%]	inhibition at 1 µM [19] [%]	Activity [22] [%]	also measured
Cn1c(=O)c2c(c3ccccc31)OC(N)=C(C#N)C2c1cccc(Cl)c1 (configuration not stated)	81	0	63	38	0	44	74	74	53	0	–	IC50 [2]: 0.5 µM; IC50 [3]: 0.3 µM; IC50 [4]: 1.8 µM; IC50 [13]: 0.2 µM; IC50 [14]: 1 µM; IC50 [15]: 0.3 µM; IC50 [16]: 0.5 µM; IC50 [17]: 0.1 µM; IC50 [18]: > 10 µM
Cn1c(=O)c2c(c3ccccc31)OC(N)=C(C#N)C2c1ccccc1[N+](=O)[O-] (configuration not stated)	49	0	35	51	0	36	78	78	0	0	–	Activity [20]: 68%; Activity [21]: 36%
CN(C)c1ccc(C2C(C#N)=C(N)Oc3c2c(=O)n(C)c2ccccc32)cc1 (configuration not stated)	41	0	34	31	0	0	10	0	20	0	22	–
COc1ccc(C2C(C#N)=C(N)Oc3c2c(=O)n(C)c2ccccc32)cc1OC (configuration not stated)	38	0	40	50	0	0	23	43	20	0	24	–
COc1cccc(C2C(C#N)=C(N)Oc3c2c(=O)n(C)c2ccccc32)c1 (configuration not stated)	67	0	76	75	0	0	70	–	66	0	75	Activity [20]: 73%
Cn1c(=O)c2c(c3ccccc31)OC(N)=C(C#N)C2c1cccc(Oc2ccccc2)c1 (configuration not stated)	69	18	66	72	0	34	70	52	47	0	51	IC50 [2]: 1.8 µM; IC50 [3]: 1.4 µM; Activity [21]: 67%; IC50 [4]: 0.2 µM; inhibition [4]: Dose-dependent effect; IC50 [13]: 0.2 µM; IC50 [14]: 4.7 µM; IC50 [15]: 5.1 µM; IC50 [16]: 0.2 µM; IC50 [17]: 3.4 µM; IC50 [18]: 11 µM
Cn1c(=O)c2c(c3ccccc31)OC(N)=C(C#N)C2c1c[nH]c2ccccc12 (configuration not stated)	27	0	18	77	0	0	8	–	16	0	67	IC50 [2]: > 20 µM; IC50 [3]: > 20 µM; inhibition [4]: inactive; IC50 [13]: 1.4 µM; IC50 [14]: > 20 µM; IC50 [15]: > 20 µM; IC50 [16]: 11 µM; IC50 [17]: > 20 µM; IC50 [18]: 6.8 µM
Cn1c(=O)c2c(c3ccccc31)OC(N)=C(C#N)C2c1cccc(O)c1 (configuration not stated)	0	5	17	29	0	4	0	11	0	0	12	–
CCOc1cc(C2C(C#N)=C(N)Oc3c2c(=O)n(C)c2ccccc32)ccc1O (configuration not stated)	6	0	27	68	0	0	0	–	12	0	88	–
CSc1ccc(C2C(C#N)=C(N)Oc3c2c(=O)n(C)c2ccccc32)cc1 (configuration not stated)	0	0	16	17	0	28	0	37	0	0	10	–
C[C@@H]1C[C@H]2[C@@H]3CCC4=CC(=O)C=C[C@]4(C)[C@@]3(F)[C@@H](O)C[C@]2(C)[C@@]1(O)C(=O)CO [DEXAMETHASONE]	–	40	–	–	–	–	–	–	–	58	–	–
Cn1c(=O)c2c(c3ccccc31)OC(N)=C(C#N)C2c1ccccc1Cl (configuration not stated)	48	0	26	69	0	12	0	0	0	0	–	–
Cn1c(=O)c2c(c3ccccc31)OC(N)=C(C#N)C2c1c2ccccc2cc2ccccc12 (configuration not stated)	25	0	40	66	0	0	10	0	19	0	69	–
COc1ccccc1C1C(C#N)=C(N)Oc2c1c(=O)n(C)c1ccccc21 (configuration not stated)	37	0	24	21	0	0	14	32	22	0	18	–
Cn1c(=O)c2c(c3ccccc31)OC(N)=C(C#N)C2c1ccc(Cl)cc1 (configuration not stated)	45	0	21	63	0	42	75	75	0	0	–	Activity [20]: 69%
COc1ccc(C2C(C#N)=C(N)Oc3c2c(=O)n(C)c2ccccc32)cc1 (configuration not stated)	78	0	80	84	0	0	73	77	70	0	81	IC50 [2]: > 20 µM; IC50 [3]: > 20 µM; inhibition [4]: inactive; IC50 [13]: 1.7 µM; IC50 [14]: > 20 µM; IC50 [15]: > 20 µM; IC50 [16]: 12.8 µM; IC50 [17]: > 20 µM; IC50 [18]: 30 µM
Cn1c(=O)c2c(c3ccccc31)OC(N)=C(C#N)C2c1ccc(O)cc1 (configuration not stated)	55	0	55	83	0	0	13	0	23	0	77	IC50 [2]: 1.1 µM; IC50 [3]: 1.2 µM; inhibition [4]: inactive; IC50 [13]: 4 µM; IC50 [14]: 1.9 µM; IC50 [15]: 0.6 µM; IC50 [16]: 10 µM; IC50 [17]: 1.8 µM; IC50 [18]: 30 µM

Reference: ChEMBL document CHEMBL4251708, “Synthesis and Biological Screening of Pyrano[3,2-c]quinoline Analogues as Anti-inflammatory and Anticancer Agents” (ACS Med Chem Lett, 2018)
